# Assays:
# [1] = tested on: sub-genomic HCV NS3-NS5B replicon genotype 1b C316N (Huh-7 cells); experiment: Replicon luciferase cell based assay, genotype 1b C316N; details: Hepatitis C virus, Huh-7, 48 h, read-out: EC50 1b 316N
# Description: (§1) 150 μL of a 1 mM stock solution in DMSO of each test compound was transferred into in the first column of a 96 well, V-bottom microplate, to give 200 times the top concentration of the required dilution series. Aliquots of 50 μL were added to each well of the remaining rows containing 100 μL of DMSO giving a 1:3 dilution series over ten points. Columns 11 and 12 contained DMSO only for the positive and negative control, respectively. 10 μL of each well were transferred into 90 μL of DMEM medium (Invitrogen #41965-039) supplemented with 5% v/v foetal calf serum, 1% v/v non-essential amino acids solution, 100 units/ml penicillin, 100 μg/ml streptomycin and 2 mM L-glutamine to give 20 times the top concentration of the required dilution series.
# (§2) Suspensions were prepared from cultures of Huh-7 cells stably transfected with sub-genomic HCV NS3-NS5B replicons of either genotype 1b (the ET subline described by Pietschmann, T., Lohmann, V., Kaul, A., Krieger, N., Rinck, G., Rutter, G., Strand, D. & Bartenschlager, R., Journal of Virology, 2002, 76, 4008-4021), genotype 1a (subline 1.19 constructed in-house from H77 SG-Neo containing adaptive mutations P1496L and S2204I as described by Blight, K. J., McKeating, J. A., Marcotrigiano, J., and Rice, C. M. Journal of Virology, 2003, 77, 3180-3190), genotype 1b C316N (constructed in-house by site directed mutagenesis of the NS5B gene of the ET subline), or genotype 1a C316Y (constructed in-house by site directed mutagenesis of the NS5B gene of H77 SG-Neo containing adaptive mutations P1496L and S2204I as described by Blight, K. J., McKeating, J. A., Marcotrigiano, J., and Rice, C. M. Journal of Virology, 2003, 77, 3180-3190) linked to a firefly luciferase reporter gene. Monolayers nearing confluency were stripped from growth flasks with versene-trypsin solution and the cells re-suspended in assay medium comprising DMEM. 95 μL of suspension containing either 15,000 cells (genotype 1b luciferase replicon) or 20,000 cells (genotype 1a luciferase replicon) were added to all wells of a 96 well plate (Perkin Elmer, #6005686), except medium controls in column 12 of the assay plate. The cell suspension was dosed with 5 μL of compound solution and the plate was incubated for 48 hours at 37° C. in a 5% CO2 atmosphere.
# (§3) For toxicity the cells in one plate were treated with Cell Titer Glo (Promega, #G7573). A solution of Cell Titer Glo was prepared according to the manufacturer's instructions, and 100 μL added to each well. The plate was then read for luminescence on an Envision. For potency a solution of Steady Glo (Promega, #E2550) was prepared according to the manufacturer's instructions and 100 μL added to each well. After a twenty minute incubation the plate was then read for luminescence on an Envision.
# (§4) Potency: The luminescence values from all compound-free wells containing cells were averaged to obtain a positive control value. The mean luminescence value from the compound-free wells that had received no cells was used to provide the negative (background) control value. The readings from the wells at each compound concentration were taken and after the subtraction of the mean background from all values, were expressed as a percentage of the positive control signal. The quantifiable and specific reduction of luciferase signal in the presence of a drug is a direct measure of replicon inhibition. BioAssay Enterprise (CamebridgeSoft) with the XC50 module for curve fitting was used to plot the curve of percentage inhibition against compound concentration and derive the 50% inhibitory concentration (EC50) for the compound. EC50 is the effective concentration, that is, the concentration of compound where 50% maximal effect is observed. The EC50 values of two identical plates were averaged. The results are presented in Table 1 as EC50 for genotypes (GT) 1a, 1b, 1b 316N and 1a 316Y.
# [2] = tested on: sub-genomic HCV NS3-NS5B replicon genotype 1a (Huh-7 cells); experiment: Replicon luciferase cell based assay, genotype 1a; details: Hepatitis C virus; Huh-7 genotype 1a luciferase replicon, 48 hours; read-out: EC50 GT 1a
# Description: as §1, §2, §3, §4
# [3] = tested on: sub-genomic HCV NS3-NS5B replicon genotype 1b (Huh-7 cells); experiment: Replicon luciferase cell based assay, genotype 1b; details: Hepatitis C virus; Huh-7 genotype 1b luciferase replicon, 48 hours; read-out: EC50 GT1b
# Description: as §1, §2, §3, §4
# [4] = tested on: sub-genomic HCV NS3-NS5B replicon genotype 1a C316Y (Huh-7 cells); experiment: Replicon luciferase cell based assay, genotype 1a C316Y; details: Hepatitis C virus, Huh-7, 48 h, read-out: EC50 1a 316Y
# Description: as §1, §2, §3, §4
Compound,EC50 [1],EC50 [2],EC50 [3],EC50 [4]
"CNC(=O)c1c(-c2ccc(F)cc2)oc2cc(N(c3ccc(B(O)O)c(C#N)c3)S(C)(=O)=O)c(C3CC3)cc12 [Example 12, (2-cyano-4-(N-(5-cyclopropyl-2-(4-fluorophenyl)-3-(methylcarbamoyl)benzofuran-6-yl)methylsulfonamido)phenyl)boronic acid]",1 to 10 nM,1 to 10 nM,1 to 10 nM,11 to 200 nM
"CNC(=O)c1c(-c2ccc(F)cc2)oc2cc(N(c3ccc(C4CCB(O)O4)c(Cl)c3)S(C)(=O)=O)c(C3CC3)cc12 (single isomer, unassigned; enantiomer 1) [Example 28, 6-(N-(3-Chloro-4-(2-hydroxy-1,2-oxaborolan-5-yl)phenyl)methylsulfonamido)-5-cyclopropyl-2-(4-fluorophenyl)-N-methylbenzofuran-3-carboxamide, enantiomer 1]",11 to 200 nM,1 to 10 nM,1 to 10 nM,11 to 200 nM
"CNC(=O)c1c(-c2ccc(F)cc2)oc2cc(N(c3ccc(B4OC(C)(C)C(C)(C)O4)c(C)c3)S(C)(=O)=O)c(C3CC3)cc12 [Example 22, 5-Cyclopropyl-2-(4-fluorophenyl)-N-methyl-6-(N-(3-methyl-4-(4,4,5,5-tetramethyl-1,3,2-dioxaborolan-2-yl)phenyl)methylsulfonamido)benzofuran-3-carboxamide]",1 to 10 nM,1 to 10 nM,1 to 10 nM,200 to 1000 nM
"CNC(=O)c1c(-c2ccc(Cl)cc2)oc2cc(N(c3ccc(B(O)O)c(C#N)c3)S(C)(=O)=O)c(C3CC3)cc12 [Example 21, (4-(N-(2-(4-Chlorophenyl)-5-cyclopropyl-3-(methylcarbamoyl)benzofuran-6-yl)methylsulfonamido)-2-cyanophenyl)boronic acid]",1 to 10 nM,1 to 10 nM,1 to 10 nM,1 to 10 nM
"CNC(=O)c1c(-c2ccc(F)cc2)oc2cc(N(c3cc(F)c4c(c3)COB4O)S(C)(=O)=O)c(C3CC3)cc12 [Example 24, 5-Cyclopropyl-6-(N-(7-fluoro-1-hydroxy-1,3-dihydrobenzo[c][1,2]oxaborol-5-yl)methylsulfonamido)-2-(4-fluorophenyl)-N-methylbenzofuran-3-carboxamide]",1 to 10 nM,1 to 10 nM,1 to 10 nM,11 to 200 nM
"CNC(=O)c1c(-c2ccc(F)cc2)oc2cc(N(c3ccc(OCB(O)O)c(Cl)c3)S(C)(=O)=O)c(C3CC3)cc12 [Example 19, ((2-Chloro-4-(N-(5-cyclopropyl-2-(4-fluorophenyl)-3-(methylcarbamoyl)benzofuran-6-yl)methylsulfonamido)phenoxy)methyl)boronic acid]",1 to 10 nM,1 to 10 nM,1 to 10 nM,1 to 10 nM
"CNC(=O)c1c(-c2ccc(F)cc2)oc2cc(N(c3cccc(B(O)O)c3)S(C)(=O)=O)c(C3CC3)cc12 [Example 4, 3-(N-(5-cyclopropyl-2-(4-fluorophenyl)-3-(methylcarbamoyl)benzofuran-6-yl)methylsulfonamido)phenylboronic acid]",11 to 200 nM,1 to 10 nM,1 to 10 nM,> 1000 nM
"CNC(=O)c1c(-c2ccc(F)cc2)oc2cc(N(c3ccc(B(O)O)c(C(F)F)c3)S(C)(=O)=O)c(C3CC3)cc12 [Example 9, (4-(N-(5-cyclopropyl-2-(4-fluorophenyl)-3-(methylcarbamoyl)benzofuran-6-yl)methylsulfonamido)-2-(difluoromethyl)phenyl)boronic acid]",1 to 10 nM,1 to 10 nM,1 to 10 nM,11 to 200 nM
"CNC(=O)c1c(-c2ccc(Cl)cc2)oc2cc(N(c3ccc(B(O)O)c(F)c3)S(C)(=O)=O)c(C3CC3)cc12 [Example 7, 4-(N-(2-(4-chlorophenyl)-5-cyclopropyl-3-(methylcarbamoyl)benzofuran-6-yl)methylsulfonamido)-2-fluorophenylboronic acid]",1 to 10 nM,1 to 10 nM,1 to 10 nM,11 to 200 nM
"CS(=O)(=O)N(c1ccc(B(O)O)c(Cl)c1)c1cc2oc(-c3ccc(Cl)cc3)c(C(N)=O)c2cc1C1CC1 [Example 14, (4-(N-(3-carbamoyl-2-(4-chlorophenyl)-5-cyclopropylbenzofuran-6-yl)methylsulfonamido)-2-chlorophenyl)boronic acid]",1 to 10 nM,1 to 10 nM,1 to 10 nM,11 to 200 nM
"CNC(=O)c1c(-c2ccc(F)cc2)oc2cc(N(c3ccc(B(O)O)cc3F)S(C)(=O)=O)c(C3CC3)cc12 [Example 6, 4-(N-(5-cyclopropyl-2-(4-fluorophenyl)-3-(methylcarbamoyl)benzofuran-6-yl)methylsulfonamido)-3-fluorophenylboronic acid]",11 to 200 nM,1 to 10 nM,1 to 10 nM,> 1000 nM
"CNC(=O)c1c(-c2ccc(F)cc2)oc2cc(N(c3ccc(B(O)O)cc3)S(C)(=O)=O)c(C3CC3)cc12 [Example 3, 4-(N-(5-cyclopropyl-2-(4-fluorophenyl)-3-(methylcarbamoyl)benzofuran-6-yl)methylsulfonamido)phenylboronic acid]",1 to 10 nM,1 to 10 nM,1 to 10 nM,200 to 1000 nM
"CNC(=O)c1c(-c2ccc(F)cc2)oc2cc(N(c3ccc(B(O)O)c(S(C)(=O)=O)c3)S(C)(=O)=O)c(C3CC3)cc12 [Example 16, (4-(N-(5-cyclopropyl-2-(4-fluorophenyl)-3-(methylcarbamoyl)benzofuran-6-yl)methylsulfonamido)-2-(methylsulfonyl)phenyl)boronic acid]",11 to 200 nM,1 to 10 nM,1 to 10 nM,11 to 200 nM
"CNC(=O)c1c(-c2ccc(F)cc2)oc2cc(N(c3ccc4c(c3)COB4O)S(C)(=O)=O)c(C3CC3)cc12 [Example 20, 5-Cyclopropyl-2-(4-fluorophenyl)-6-(N-(1-hydroxy-1,3-dihydrobenzo[c][1,2]oxaborol-5-yl)methylsulfonamido)-N-methylbenzofuran-3-carboxamide]",1 to 10 nM,1 to 10 nM,1 to 10 nM,11 to 200 nM
"CNC(=O)c1c(-c2ccc(F)cc2)oc2cc(N(c3cccc(CCB(O)O)c3)S(C)(=O)=O)c(C3CC3)cc12 [Example 26, (3-(N-(5-Cyclopropyl-2-(4-fluorophenyl)-3-(methylcarbamoyl)benzofuran-6-yl)methylsulfonamido)phenethyl)boronic acid]",11 to 200 nM,1 to 10 nM,1 to 10 nM,200 to 1000 nM
"CNC(=O)c1c(-c2ccc(F)cc2)oc2cc(N(c3ccc(B(O)O)c(F)c3)S(C)(=O)=O)c(C3CC3)cc12 [Example 5, 4-(N-(5-cyclopropyl-2-(4-fluorophenyl)-3-(methylcarbamoyl)benzofuran-6-yl)methylsulfonamido)-2-fluorophenylboronic acid]",1 to 10 nM,1 to 10 nM,1 to 10 nM,11 to 200 nM

# — patent US9682999B2, “Benzofuran compounds for the treatment of hepatitis C virus infections” (Glaxo Group Limited, priority 2011, dated 2017)
